Measured values as given in patent US7563793B2, “Pyrrolo[1,2-a]quinoxalin-5-(4H)-yl)sulfonyls and carbonyls and their use as estrogenic agents” (Wyeth, priority 2004, dated 2009).
Like-named read-outs stand apart in the source and are kept apart here.

Tests used:
Assay type in all cases: cell-based, human
[1] = tested on: IL-6; experiment: IL-6 assay (ELISA) in Ad5-wt-ER infected HAECT-1 cells (IL-1β induced); conditions: for Emax: HAECT1, relative to maximal inhibition observed with E2, read-out: IL-6 Efficacy; for IL-6 Efficacy: relative to maximal inhibition observed with E2
Method: (§1) After four hours, cells were washed with EBM-BSA and incubated overnight in the same medium. […] After two hours, cells were washed and incubated at 34° C. for 1 hour. […] Control (no ER infection) cells were processed as above without Ad5-wt-hERα virus infection. […] Cells were subsequently washed with 300 μl of Dulbecco's phosphate buffered saline and lysed in 50 μl of Cell Culture Lysis Reagent (Promega). Luciferase was determined on a Wallac Victor^2 Luminometer (Gaithersburg, Md.) using 10 μl of lysate and mixing with 100 lμof Promega Luciferase Assay reagent. […] For IC50 and EC50 calculations, mean IL-6, luciferase or CK values versus log10 of the compound concentration were fitted to a four parameter logistic equation. The IC50/EC50 value, ‘Hill slope’, upper and lower limits of the curve were iteratively estimated.

[2] = tested on: creatine kinase; experiment: Creatine kinase assay in Ad5-wt-ER infected HAECT-1 cells; conditions: for EC50 / Emax: Homo sapiens; for EC50: HAECT1, CK stimulation, N/O = activity not observed at concentrations tested, read-out: CK IC50; for Emax: HAECT1, relative to maximal stimulation observed with E2, read-out: CK Efficacy; for CK Efficacy: relative to maximal stimulation observed with E2
Method: as §1

[3] = tested on: ER/Nf-kB; experiment: ER/NF-κB luciferase reporter assay in Ad5-wt-ER infected HAECT-1 cells (IL-1β induced); conditions: for ER/Nf-kB Efficacy: relative to maximal inhibition observed with E2
Method: as §1

Structure (SMILES) | IC50 ([1]; Homo sapiens, HAECT1) [nM] | Emax ([1]; Homo sapiens) [%] | EC50 [2] [nM] | Emax [2] [%] | other results
C[C@H]1c2cccn2-c2ccc(Br)cc2N1C(=O)c1cccc(O)c1 [107 (S), 3-{[(4S)-7-bromo-4-methylpyrrolo[1,2-a]quinoxalin-5(4H)-yl]carbonyl}phenol] | 1060 | 66 | – | – | –
CC[C@@H]1c2cccn2-c2ccc(Br)cc2N1C(=O)c1ccc(O)cc1 [111 (R), 4-{[(4R)-7-bromo-4-ethylpyrrolo[1,2-a]quinoxalin-5(4H)-yl]carbonyl}phenol] | 46 | 87 | 117 | 40 | –
CC[C@H]1c2cccn2-c2ccc(Br)cc2N1C(=O)c1ccc(O)cc1 [111 (S), 4-{[(4S)-7-bromo-4-ethylpyrrolo[1,2-a]quinoxalin-5(4H)-yl]carbonyl}phenol] | 1090 | 65 | – | – | –
CC(C)(C)[C@@H]1c2cccn2-c2ccc(Br)cc2N1C(=O)c1cccc(O)c1 [115 (R), 3-{[(4R)-7-bromo-4-tert-butylpyrrolo[1,2-a]quinoxalin-5(4H)-yl]carbonyl}phenol] | 647 | 82 | – | – | –
CC(C)(C)[C@H]1c2cccn2-c2ccc(Br)cc2N1C(=O)c1cccc(O)c1 [115 (S), 3-{[(4S)-7-bromo-4-tert-butylpyrrolo[1,2-a]quinoxalin-5(4H)-yl]carbonyl}phenol] | 455 | 94 | – | – | –
CC[C@@H]1c2cccn2-c2ccc(F)cc2N1C(=O)c1ccc(O)cc1 [119 (R), 4-{[(4R)-4-ethyl-7-fluoropyrrolo[1,2-a]quinoxalin-5(4H)-yl]carbonyl}phenol] | 8 | 95 | 11 | 27 | –
CC[C@H]1c2cccn2-c2ccc(F)cc2N1C(=O)c1ccc(O)cc1 [119 (S), 4-{[(4S)-4-ethyl-7-fluoropyrrolo[1,2-a]quinoxalin-5(4H)-yl]carbonyl}phenol] | 101 | 79 | – | – | –
CC[C@@H]1c2cccn2-c2ccc(F)cc2N1C(=O)c1ccc(O)cc1O [121 (R), 4-{[(4R)-4-ethyl-7-fluoropyrrolo[1,2-a]quinoxalin-5(4H)-yl]carbonyl}benzene-1,3-diol] | 1.6 | 108 | 13 | 36 | –
CC[C@H]1c2cccn2-c2ccc(F)cc2N1C(=O)c1ccc(O)cc1O [121 (S), 4-{[(4S)-4-ethyl-7-fluoropyrrolo[1,2-a]quinoxalin-5(4H)-yl]carbonyl}benzene-1,3-diol] | 72 | 95 | 64 | 32 | –
C[C@H]1c2cccn2-c2ccc(F)cc2N1C(=O)c1ccc(O)cc1 [123 (S), 4-{[(4S)-7-fluoro-4-methylpyrrolo[1,2-a]quinoxalin-5(4H)-yl]carbonyl}phenol] | 606 | 47 | – | – | –
CC[C@H]1c2cccn2-c2ccc(Cl)cc2N1C(=O)c1ccc(O)cc1O [125 (S), 4-{[(4S)-7-chloro-4-ethylpyrrolo[1,2-a]quinoxalin-5(4H)-yl]carbonyl}benzene-1,3-diol] | 1100 | 81 | 68 | 15 | –
CC[C@H]1c2cccn2-c2ccc(F)cc2N1C(=O)c1cccc(O)c1 [127 (S), 3-{[(4S)-4-ethyl-7-fluoropyrrolo[1,2-a]quinoxalin-5(4H)-yl]carbonyl}phenol] | 1330 | 41 | 33 | 33 | –
C[C@@H]1c2cccn2-c2ccc(F)cc2N1C(=O)c1cccc(O)c1 [131 (R), 3-{[(4R)-4-methyl-7-fluoropyrrolo[1,2-a]quinoxalin-5(4H)-yl]carbonyl}phenol] | 179 | 103 | – | – | –
C[C@H]1c2cccn2-c2ccc(F)cc2N1C(=O)c1cccc(O)c1 [131 (S), 3-{[(4S)-4-methyl-7-fluoropyrrolo[1,2-a]quinoxalin-5(4H)-yl]carbonyl}phenol] | 1460 | 69 | – | – | –
CC1c2ccc(F)n2-c2cc(F)c(F)cc2N1S(=O)(=O)c1ccc(O)cc1 (centres unmarked) [Example 13, 4-[(1,7,8-trifluoro-4-methylpyrrolo[1,2-a]quinoxalin-5-(4H)-yl)sulfonyl]phenol] | – | – | – | – | IC50 [3]: 20 nM; ER/Nf-kB Efficacy [3]: 104%
CC1(C)c2cccn2-c2cc(F)c(F)cc2N1S(=O)(=O)c1ccc(O)cc1 [Example 15, 4-[(7,8-difluoro-4,4-dimethylpyrrolo[1,2-a]quinoxalin-5-(4H)-yl)sulfonyl]phenol] | – | – | – | – | IC50 [3]: 150 nM; ER/Nf-kB Efficacy [3]: 105%
CCC1c2ccc(F)n2-c2ccc(F)cc2N1S(=O)(=O)c1ccc(O)cc1 (centres unmarked) [Example 23, 4-[(4-ethyl-1,7-difluoropyrrolo[1,2-a]quinoxalin-5-(4H)-yl)sulfonyl]phenol] | – | – | – | – | IC50 [1]: 6.6 nM; IL-6 Efficacy [1]: 162%; CK Efficacy [2]: 52%

Structure (SMILES) | IC50 ([1]; Homo sapiens, HAECT1) [nM] | Emax ([1]; Homo sapiens) [%] | EC50 [2] [nM] | Emax [2] [%] | other results
CCC1c2cccn2-c2ccc(F)cc2N1S(=O)(=O)c1ccc(O)c(Cl)c1 (centres unmarked) [Example 31, 2-chloro-4-[(4-ethyl-7-fluoropyrrolo[1,2-a]quinoxalin-5-(4H)-yl)sulfonyl]phenol] | – | – | – | – | IC50 [3]: 364 nM; ER/Nf-kB Efficacy [3]: 104%
Cc1cc(S(=O)(=O)N2c3cc(F)ccc3-n3cccc3C2C)ccc1O (centres unmarked) [Example 51, 4-[(7-fluoro-4-methylpyrrolo[1,2-a]quinoxalin-5-(4H)-yl)sulfonyl]-2-methylphenol] | – | – | – | – | IC50 [3]: 155 nM; ER/Nf-kB Efficacy [3]: 66%
CC1c2cccn2-c2ccc(Br)cc2N1S(=O)(=O)c1ccc(O)cc1 (centres unmarked) [Example 52, 4-[(7-bromo-4-methylpyrrolo[1,2-a]quinoxalin-5-(4H)-yl)sulfonyl]phenol] | – | – | – | – | IC50 [3]: 11 nM; ER/Nf-kB Efficacy [3]: 100%
CCC1c2cccn2-c2ccc(C(F)(F)F)cc2N1S(=O)(=O)c1ccc(O)cc1 (centres unmarked) [Example 56, 4-{[4-ethyl-7-(trifluoromethyl)pyrrolo[1,2-a]quinoxalin-5-(4H)-yl]sulfonyl}phenol] | – | – | – | – | IC50 [3]: 79 nM; ER/Nf-kB Efficacy [3]: 107%
CCC1c2cccn2-c2cc(F)c(F)cc2N1S(=O)(=O)c1ccc(OS(N)(=O)=O)cc1 (centres unmarked) [Example 105, 4-{4-ethyl-7,8-difluoropyrrolo[1,2-a]quinoxalin-5(4H)-yl]sulfonyl}phenyl sulfamate] | – | – | – | – | IC50 [1]: 2 nM; IL-6 Efficacy [1]: 116%; CK Efficacy [2]: 49%
CC1c2cccn2-c2ccc(Br)cc2N1C(=O)c1cccc(O)c1 (centres unmarked) [Example 106, 3-[(7-bromo-4-methylpyrrolo[1,2-a]quinoxalin-5(4H)-yl)carbonyl]phenol] | 10 | 54 | – | – | –
CC1c2cccn2-c2ccc(Br)cc2N1C(=O)c1ccc(O)cc1 (centres unmarked) [Example 108, 4-[(7-bromo-4-methylpyrrolo[1,2-a]quinoxalin-5(4H)-yl)carbonyl]phenol] | 53 | 118 | 18 | 7 | –
CC1c2cccn2-c2ccc(Br)cc2N1C(=O)c1ccc(O)cc1O (centres unmarked) [Example 109, 4-[(7-bromo-4-methylpyrrolo[1,2-a]quinoxalin-5(4H)-yl)carbonyl]benzene-1,3-diol] | 42 | 128 | 398 | 40 | –
CCC1c2cccn2-c2ccc(Br)cc2N1C(=O)c1ccc(O)cc1 (centres unmarked) [Example 110, 4-[(7-bromo-4-ethylpyrrolo[1,2-a]quinoxalin-5(4H)-yl)carbonyl]phenol] | 369 | 78 | – | – | –
CCC1c2cccn2-c2ccc(Br)cc2N1C(=O)c1cccc(O)c1 (centres unmarked) [Example 112, 3-[(7-bromo-4-ethylpyrrolo[1,2-a]quinoxalin-5(4H)-yl)carbonyl]phenol] | 152 | 88 | 207 | 21 | –
CCC1c2cccn2-c2ccc(Br)cc2N1C(=O)c1ccc(O)cc1O (centres unmarked) [Example 113, 4-[(7-bromo-4-ethylpyrrolo[1,2-a]quinoxalin-5(4H)-yl)carbonyl]benzene-1,3-diol] | 9.5 | 101 | 25 | 28 | –
CC(C)(C)C1c2cccn2-c2ccc(Br)cc2N1C(=O)c1cccc(O)c1 (centres unmarked) [Example 114, 3-[(7-bromo-4-tert-butylpyrrolo[1,2-a]quinoxalin-5(4H)-yl)carbonyl]phenol] | 441 | 38 | – | – | –
CC(C)(C)C1c2cccn2-c2ccc(Br)cc2N1C(=O)c1ccc(O)cc1 (centres unmarked) [Example 116, 4-[(7-bromo-4-tert-butylpyrrolo[1,2-a]quinoxalin-5(4H)-yl)carbonyl]phenol] | 207 | 90 | – | – | –
CC(C)(C)C1c2cccn2-c2ccc(Br)cc2N1C(=O)c1ccc(O)cc1O (centres unmarked) [Example 117, 4-[(7-bromo-4-tert-butylpyrrolo[1,2-a]quinoxalin-5(4H)-yl)carbonyl]benzene-1,3-diol] | 9 | 90 | 33 | 42 | –
CC[C@@H]1c2ccc(C#N)n2-c2ccc(F)cc2N1C(=O)c1ccc(O)cc1 [Example 128, (4R)-4-ethyl-7-fluoro-5-(4-hydroxybenzoyl)-4,5-dihydropyrrolo[1,2-a]quinoxaline-1-carbonitrile] | 64 | 111 | – | – | –
CC[C@H]1c2ccc(C#N)n2-c2ccc(F)cc2N1C(=O)c1ccc(O)cc1 [Example 129, (4S)-4-ethyl-7-fluoro-5-(4-hydroxybenzoyl)-4,5-dihydropyrrolo[1,2-a]quinoxaline-1-carbonitrile] | 29 | -77 | 636 | -7 | –
